Article PMC4745926, “Absorption, Metabolism, and Excretion by Freely Moving Rats of 3,4-DHPEA-EDA and Related Polyphenols from Olive Fruits (Olea europaea)” (Journal of Nutrition and Metabolism, 2016)
Entries after “also recorded” stand apart in the source; their conditions may differ.

Experiments:
[1] = Urinary excretion after intravenous administration; format: in vivo, Wistar ST rats
Description: SPF Wistar ST rats (6 weeks of age, male, 180 ± 20 g of body weight) were purchased from Japan SLC Inc. (Hamamatsu, Japan). The rats were housed in an air-conditioned room at 22 ± 2°C under cycles of 12 hours dark and 12 hours light and given free access to a commercial diet and water for a week. The rats were then fasted for over 16 hours before the experiments. The present study was approved by the Animal Care and Use Committee at Kagawa University, and the rat treatment conformed to the Rules of Animal Experiments at Kagawa University. 3,4-[…] (300 mg/kg body weight; 936.51 μmol/kg) dissolved in 50% polyethylene glycol aqueous solution was administered orally via a stomach tube to the portal vein cannulated rats. Blood samples (450 μL) were then collected using a heparinized syringe attached to the cannula before administration and 5, 15, 30, 60, 120, and 240 min after administration. Urine was also collected before administration and 0 to 2 h and 2 to 4 h after administration. For intravenous administration, 3,4-[…] (10 mg/kg; 31.22 μmol/kg) was injected into the jugular vein, and blood (450 μL) was collected using a heparinized syringe before administration and 5, 15, 30, 60, 120, and 240 min after administration via the jugular vein cannula. The blood (450 μL) collected was immediately cooled on ice and centrifuged at 15,000 rpm for 5 min at 4°C to obtain over 200 μL plasma. Urine was also collected before administration and 0 to 2 h and 2 to 4 h after administration. Bile was collected via the bile duct cannula before administration and 0 to 2 h and 2 to 4 h after intravenous administration. The collected plasma, urine, and bile were immediately stored in an ice box until further analyses. HT (oral administration: 100 mg/kg; 648.66 μmol/kg, intravenous administration: 10 mg/kg; 64.87 μmol/kg) and Ole (oral administration: 300 mg/kg; 555.02 μmol/kg, intravenous administration: 10 mg/kg; 18.50 μmol/kg) were investigated using the same method as described above. Metabolites were deconjugated by using β-glucuronidase (500 U) and sulfatase (50 U) in 50 μL 625 mM MOPS (pH 6.8), which was added to 200 μL of plasma, urine, or bile. The mixture was incubated for 45 min at 37°C and subjected to extraction using QuEChERS [33]. […] Shimadzu, Kyoto, Japan) equipped with a Shim-pack XR-ODS column (3.0 mm I.D. × 100 mm; Shimadzu, Kyoto, Japan) at 40°C with a mobile phase of 0.5% TFA-1% acetonitrile aqueous solution (A) and 0.5% TFA-75% acetonitrile aqueous solution (B). The elution conditions are described as follows: isocratic elution of 0% B was maintained for 4.0 min; linear gradient 0 to 4% B, 4.0-4.5 min; linear gradient 4.0-16.0% B, 4.5-16.0 min; linear gradient 16.0-100% B, 16.0-25.0 min; isocratic elution of 100% B, 25.0-26.0 min; and linear gradient 100 to 0% B, 26.0-26.1 min, with a flow rate of 0.5 mL/min. Injection volume was 50 μL. All eluted peaks were detected at 279 nm with a diode array detector (SPD-M20A; Shimadzu, Kyoto, Japan).

[2] = Recovery of 3,4-DHPEA-EDA spiked into rat plasma; format: in vitro ADME; conditions: recovery yield check
Description: After oral administration of 3,4-DHPEA-EDA, HT (27.7 AUC0→4 h-i.g./Dosei.g.), HVAOH (4.2 AUC0→4 h-i.g./Dosei.g.), and HVA (4.5 AUC0→4 h-i.g./Dosei.g.) were detected in the portal plasma. Low absorption of 3,4-DHPEA-EDA is reported in some papers. […] Plasma components such as serum albumin, serum lipoprotein, and glycoprotein may have bound 3,4-DHPEA-EDA and hindered its detection. 3,4-DHPEA-EDA as a dialdehyde form might quickly bind to proteins bearing primary amines such as globulins, albumins, and other functional proteins in blood plasma, as malondialdehyde does. […] To our knowledge, this is the first report of the formation of HVAOH from 3,4-DHPEA-EDA.

HT in urine [1] | HVA in urine [1] | HVAOH in urine [1] | Total metabolites observed in the urine [1] [%] | Recovery of 3,4-DHPEA-EDA spiked into rat plasma [2] | Detection of intact Ole and metabolites in urine ([1]; listed as Ole) | SMILES | Detection of intact 3,4-DHPEA-EDA in urine [1]
6.3 % of dose | 2.6 % of dose | 4.6 % of dose | 13 | could not be detected |  | CC=C(C=O)C(CC=O)CC(=O)OCCc1ccc(O)c(O)c1 (stereo not shown) [3,4-DHPEA-EDA, 3,4-dihydroxyphenylethyl elenolate dialdehydic form] | not observed; also recorded: not detected
 |  |  |  |  | not detected at all | C/C=C1/[C@H](O[C@@H]2O[C@H](CO)[C@@H](O)[C@H](O)[C@H]2O)OC=C(C(=O)OC)[C@H]1CC(=O)OCCc1ccc(O)c(O)c1 [Oleuropein, reference compound] | 
